How the values were obtained:
[1] = system: MDA-MB-231 cells; assay: Invasion assay, Matrigel-coated transwell chambers; type: cell-based, human; conditions: various concentrations, 4 h and o/n
Protocol: For invasion measurements transwell chambers in 24-well permeable support plates (Corning, #3421) were coated with Corning Matrigel basement membrane matrix (Corning, #354234) for 1.5 h. A total of 4 × 104 MDA-MB-231 WT and TRPML1 KO cells were seeded on top of the chambers in serum-free medium, and direct stimulation with EDME was performed. The lower compartment contained the chemotactic gradient, medium with 10% FBS. Cells were allowed to migrate for 4 h and o/n, and were then fixed and stained with crystal violet containing methanol. Non-invaded cells were removed with Q-tips and pictures were taken of the bottom side of the membrane using an inverted microscope (Olympus CKX41) and an Olympus SC50 camera (Olympus). The number of invaded cells was quantified using ImageJ 1.52a software.

[2] = biological target: T1, hTRPML3 (Homo sapiens, UniProt Q8TDD5); assay: Whole-cell patch-clamp, tetracycline-inducible HEK293 hTRPML3; type: cell-based; conditions: 30 µM ML-SA1, pH 7.4
T1 construct: host or cells: HEK293, FLP-in-Tet-On, tetracycline-induced
T1 sequence (Q8TDD5 1-553): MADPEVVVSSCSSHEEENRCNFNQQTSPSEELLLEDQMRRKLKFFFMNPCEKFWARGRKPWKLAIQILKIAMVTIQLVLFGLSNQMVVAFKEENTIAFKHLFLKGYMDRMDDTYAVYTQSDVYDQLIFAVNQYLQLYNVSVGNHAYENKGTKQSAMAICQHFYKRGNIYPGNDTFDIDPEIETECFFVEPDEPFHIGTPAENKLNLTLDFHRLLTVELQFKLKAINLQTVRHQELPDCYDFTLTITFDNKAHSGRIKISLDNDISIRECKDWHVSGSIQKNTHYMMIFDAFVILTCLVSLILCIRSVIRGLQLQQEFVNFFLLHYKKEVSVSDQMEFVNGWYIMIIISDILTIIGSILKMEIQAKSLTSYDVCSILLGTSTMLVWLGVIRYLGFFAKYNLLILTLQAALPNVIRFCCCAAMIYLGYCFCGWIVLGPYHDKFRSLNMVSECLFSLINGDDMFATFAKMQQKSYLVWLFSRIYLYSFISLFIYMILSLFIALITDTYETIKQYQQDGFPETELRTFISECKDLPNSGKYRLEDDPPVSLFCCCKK
Protocol: (§1) For whole-cell patch-clamp experiments tetracycline-inducible hTRPML1L15/16A, L577/578A, hTRPML2 and TRPML3 HEK293 cell lines were used, generated by ICAGEN Inc. using the FLP-in-Tet-On system. Experiments were performed as described previously[20],[42]. In brief, cells were cultured on coverslips (Fisherbrand, Fisher Scientific) in complete DMEM medium with 10% FBS (Thermo Fisher). HEK293 cells expressing the desired channel protein were patch-clamped after overnight induction with tetracycline (1 µg/mL). […] The pipette solution contained (mM) 122 Cs‐methanosulfonate, 4 NaCl, 10 EGTA, 2 Na-ATP, 2 MgCl2 and 20 HEPES, pH 7.2 (with CsOH). The standard bath solution contained (mM) 153 NaCl, 5 KCl, 2 CaCl2, 1 MgCl2, 20 HEPES and 10 Glucose (pH 7.4 with NaOH). The low pH bath solution contained (mM) 150 Na-Gluconate, 5 KCl, 2 CaCl2, 1 MgCl2, 10 glucose, 10 HEPES and 10 MES (pH 4.6). Whole‐cell currents were recorded using a Multiclamp 700B amplifier (Molecular Devices) with low‐pass filtering at 3 kHz. The currents were digitized at a sampling frequency of 10 kHz using BNC-2110 and PCI-6221 with NI-DAQmx (National Instruments) and stored directly to a hard drive. Current recording was done with WinWCP5.2.7 (University of Strathclyde, UK) software, and analysis was done with the help of a customized Igor pro program (WaveMetrics).

[3] = biological target: T2, hTRPML1L15/16A, L577/578A (Homo sapiens, UniProt Q9GZU1, L15A/L16A); assay: Whole-cell patch-clamp, tetracycline-inducible HEK293 hTRPML1L15/16A, L577/578A; type: cell-based; conditions: 30 µM ML-SA1, pH 4.6; read-out: TRPML1 IC50, whole-cell patch-clamp
T2 construct: host or cells: HEK293, FLP-in-Tet-On, tetracycline-induced
Protocol: as §1

T2 sequence (Q9GZU1 with tags, fused parts or gaps L15A/L16A): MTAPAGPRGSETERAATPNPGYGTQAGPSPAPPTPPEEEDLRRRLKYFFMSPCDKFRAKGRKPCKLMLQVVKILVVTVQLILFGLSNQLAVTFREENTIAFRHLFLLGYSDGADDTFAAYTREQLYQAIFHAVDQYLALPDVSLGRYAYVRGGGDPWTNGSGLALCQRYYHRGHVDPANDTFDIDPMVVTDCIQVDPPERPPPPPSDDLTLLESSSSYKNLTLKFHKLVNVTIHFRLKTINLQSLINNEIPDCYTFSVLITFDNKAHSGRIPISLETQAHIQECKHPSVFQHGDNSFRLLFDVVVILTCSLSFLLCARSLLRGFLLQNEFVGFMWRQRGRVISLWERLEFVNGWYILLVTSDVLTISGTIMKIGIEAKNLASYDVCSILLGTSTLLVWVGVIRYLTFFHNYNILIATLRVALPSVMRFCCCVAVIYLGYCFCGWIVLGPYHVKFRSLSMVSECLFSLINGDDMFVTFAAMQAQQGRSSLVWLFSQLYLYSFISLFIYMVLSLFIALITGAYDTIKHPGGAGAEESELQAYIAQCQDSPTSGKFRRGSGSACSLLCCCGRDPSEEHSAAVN

With `COc1ccc2c(c1)CC[C@@H]1[C@@H]2CC[C@]2(C)[C@@H](O)CC[C@@H]12` [EDME, 17β-estradiol methyl ether] the “invasion of MDA-MB-231 cells” value [1] was “significantly reduced”, the “block of TRPML3, whole-cell patch-clamp” value [2] was “no block” and the IC50 [3] was 220 nM.
